Measured values as given in ChEMBL document CHEMBL2203118, “Ethyl 2,4,6-trihydroxybenzoate is an agonistic ligand for liver X receptor that induces cholesterol efflux from macrophages without affecting lipid accumulation in HepG2 cells” (Bioorg Med Chem Lett, 2012).
Activity calls are given as the source filed them. No cut-off for these calls is given here.

Key:
[1] = molecular target: T1, Oxysterols receptor LXR-alpha (Homo sapiens) (UniProt Q13133); experiment: Agonist activity at LXR-alpha in human THP1 cells assessed as reduced cellular cholesterol concentration; type: functional, cell-based; details: THP-1
T1 sequence (whole entry): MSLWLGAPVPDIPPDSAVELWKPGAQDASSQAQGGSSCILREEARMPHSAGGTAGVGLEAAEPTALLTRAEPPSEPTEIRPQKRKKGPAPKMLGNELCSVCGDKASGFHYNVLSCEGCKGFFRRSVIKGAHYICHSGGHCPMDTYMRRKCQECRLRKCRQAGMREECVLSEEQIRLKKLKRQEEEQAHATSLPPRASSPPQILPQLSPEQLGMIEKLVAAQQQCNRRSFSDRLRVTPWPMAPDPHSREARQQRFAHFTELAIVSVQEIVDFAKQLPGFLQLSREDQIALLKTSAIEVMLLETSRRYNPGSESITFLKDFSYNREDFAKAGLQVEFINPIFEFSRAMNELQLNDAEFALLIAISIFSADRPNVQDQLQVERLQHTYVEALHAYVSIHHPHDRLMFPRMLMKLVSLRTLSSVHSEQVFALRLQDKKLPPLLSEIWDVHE

[2] = molecular target: T1, Oxysterols receptor LXR-alpha (Homo sapiens); experiment: Agonist activity at LXR-alpha in human HepG2 cells assessed as reduction in cellular cholesterol level; type: functional, cell-based
[3] = molecular target: T2, Liver X receptor (Homo sapiens) (UniProt Q13133+P55055); experiment: Agonist activity at LXR in human THP1 cells assessed as induction of ABCA1 mRNA expression at 100 uM after 48 hrs by qPCR analysis relative to control; type: functional, cell-based; details: THP-1
[4] = molecular target: T3, Oxysterols receptor LXR-beta (Homo sapiens) (UniProt P55055); experiment: (§1) Agonist activity at human LXR-beta assessed as increase in recruitment of Trap 220/D22 coactivator peptide by TR-FRET assay; type: functional
T3 sequence (whole entry): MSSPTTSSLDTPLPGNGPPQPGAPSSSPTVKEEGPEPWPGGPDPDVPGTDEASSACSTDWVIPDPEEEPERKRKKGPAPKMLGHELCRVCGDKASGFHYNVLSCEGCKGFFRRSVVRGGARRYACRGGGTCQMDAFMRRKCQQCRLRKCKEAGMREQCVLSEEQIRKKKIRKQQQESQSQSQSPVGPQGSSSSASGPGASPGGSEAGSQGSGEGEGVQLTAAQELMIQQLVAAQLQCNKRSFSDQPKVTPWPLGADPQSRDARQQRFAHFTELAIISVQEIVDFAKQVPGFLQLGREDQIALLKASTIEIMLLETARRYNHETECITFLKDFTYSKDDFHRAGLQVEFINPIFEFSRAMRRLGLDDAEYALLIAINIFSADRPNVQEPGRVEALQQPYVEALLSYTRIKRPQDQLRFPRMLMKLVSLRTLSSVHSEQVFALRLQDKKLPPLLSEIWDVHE

[5] = molecular target: T4, Oxysterols receptor LXR-beta (Homo sapiens, UniProt P55055); experiment: as §1; type: functional
T4 sequence (P55055 whole entry): T3 sequence (whole entry)

[6] = molecular target: T5, Peroxisome proliferator-activated receptor alpha (Homo sapiens) (UniProt Q07869); experiment: Transactivation of PPAR-alpha transfected in HEK293 cells at 50 to 100 uM after 24 hrs by luciferase reporter gene assay; type: cell-based
T5 sequence (whole entry): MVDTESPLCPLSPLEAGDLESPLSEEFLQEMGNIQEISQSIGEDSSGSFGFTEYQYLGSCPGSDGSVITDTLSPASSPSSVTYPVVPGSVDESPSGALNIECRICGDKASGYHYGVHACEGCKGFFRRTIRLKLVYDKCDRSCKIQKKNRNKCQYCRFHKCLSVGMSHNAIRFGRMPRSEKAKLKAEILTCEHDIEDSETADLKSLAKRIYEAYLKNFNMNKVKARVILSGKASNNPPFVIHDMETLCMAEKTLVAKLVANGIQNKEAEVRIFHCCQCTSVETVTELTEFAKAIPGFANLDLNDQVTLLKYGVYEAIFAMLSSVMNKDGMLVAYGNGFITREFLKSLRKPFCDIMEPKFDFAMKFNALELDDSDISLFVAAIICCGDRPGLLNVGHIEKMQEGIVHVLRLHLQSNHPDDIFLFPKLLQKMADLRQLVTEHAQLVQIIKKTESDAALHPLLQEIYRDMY

[7] = molecular target: T2, Liver X receptor (Homo sapiens); experiment: Agonist activity at LXR in human Caco2 cells assessed as increase in ABCA1 mRNA level at 100 uM after 48 hrs by qPCR analysis relative to control; type: functional, cell-based; details: Caco-2
[8] = molecular target: T3, Oxysterols receptor LXR-beta (Homo sapiens); experiment: Transactivation of human LXR-beta transfected in HEK293 cells at 100 uM after 24 hrs by luciferase reporter gene assay; type: cell-based
[9] = tested on: HepG2; experiment: Cytotoxicity against human HepG2 cells after 48 hrs by MTT assay; type: cell-based; details: hepg2, 48 h
[10] = tested on: HepG2; experiment: Upregulation of SREBP-1 gene expression in human HepG2 cells at 50 to 100 uM by immunoblot analysis; type: ADME, cell-based; details: hepg2, 100 µM
[11] = tested on: HepG2; experiment: Induction of lipid accumulation in human HepG2 cells assessed as increase in cellular triglyceride level by Dil staining relative to control; type: cell-based
[12] = molecular target: T6, Oxysterols receptor LXR-alpha (Homo sapiens, UniProt Q13133); experiment: Transactivation of human LXR-alpha transfected in HEK293 cells after 24 hrs by luciferase reporter gene assay; type: cell-based
T6 sequence (Q13133 whole entry): T1 sequence (whole entry)

[13] = tested on: HepG2; experiment: Induction of lipid accumulation in human HepG2 cells assessed as increase in cellular triglyceride level at 50 to 100 uM by Oil Red O staining relative to control; type: cell-based; details: hepg2, 100 µM
[14] = Agonist activity at LXR in mouse RAW 264.7 assessed as induction of ABCA1 mRNA expression at 100 uM after 48 hrs by qPCR analysis relative to control; type: functional
[15] = tested on: HepG2; experiment: Upregulation of SREBP-1 gene expression in human HepG2 cells at 50 to 100 uM by qPCR analysis relative to control relative to control; type: ADME, cell-based; details: hepg2, 100 µM
[16] = molecular target: T1, Oxysterols receptor LXR-alpha (Homo sapiens); experiment: Agonist activity at LXR-alpha in human THP1 cells assessed as increase cholesterol efflux to HDL by FACs analysis; type: functional, cell-based; details: THP-1
[17] = molecular target: T1, Oxysterols receptor LXR-alpha (Homo sapiens); experiment: Transactivation of human LXR-alpha transfected in HEK293 cells at 100 uM after 24 hrs by luciferase reporter gene assay; type: cell-based
[18] = molecular target: T2, Liver X receptor (Homo sapiens); experiment: Agonist activity at LXR in human THP1 cells assessed as increase in ApoE mRNA level at 100 uM after 48 hrs by qPCR analysis relative to control; type: functional, cell-based; details: THP-1
[19] = tested on: HepG2; experiment: Upregulation of FAS gene expression in human HepG2 cells at 50 to 100 uM by qPCR analysis; type: ADME, cell-based; details: hepg2, 100 µM
[20] = molecular target: T2, Liver X receptor (Homo sapiens); experiment: Agonist activity at LXR in human THP1 cells assessed as induction of ABCA1 gene expression at 100 uM after 48 hrs by immunoblot analysis relative to control; type: functional, cell-based; details: THP-1
[21] = molecular target: T4, Oxysterols receptor LXR-beta; experiment: Transactivation of human LXR-beta transfected in HEK293 cells after 24 hrs by luciferase reporter gene assay; type: cell-based
[22] = tested on: RAW264.7; experiment: Cytotoxicity against mouse RAW264.7 after 48 hrs by MTT assay; type: cell-based; details: raw264.7, 48 h
[23] = molecular target: T6, Oxysterols receptor LXR-alpha; experiment: (§2) Agonist activity at human LXR-alpha assessed as increase in recruitment of Trap 220/Drip2 coactivator peptide by TR-FRET assay; type: functional
[24] = molecular target: T1, Oxysterols receptor LXR-alpha (Homo sapiens); experiment: as §2; type: functional
[25] = tested on: HepG2; experiment: Upregulation of ACOX gene expression in human HepG2 at 100 uM by qPCR analysis relative to control; type: functional, cell-based

Compound: CCOC(=O)c1c(O)cc(O)cc1O
- Activity [1]: Dose-dependent effect
- Activity [2]: Dose-dependent effect
- fold change (FC) [3]: 7.4
- Activity [4]: Dose-dependent effect
- EC50 [5]: 3.04 µM
- Activity [6]: inactive
- fold change (FC) [7]: 2.1
- Activity [8]: 55%
- Activity [9]: Non-toxic
- Activity [10]: Non-toxic
- Activity [11]: Non-toxic
- EC50 [12]: 80.8 µM
- Activity [13]: Non-toxic
- fold change (FC) [14]: 2.1
- Activity [15]: Non-toxic
- Activity [16]: Dose-dependent effect
- Activity [17]: 64%
- fold change (FC) [18]: 1.9
- Activity [19]: Non-toxic
- Activity [20]: Active
- EC50 [21]: 37.8 µM
- Activity [22]: Non-toxic
- EC50 [23]: 1.5 µM
- Activity [24]: Dose-dependent effect
- Activity [25]: Active
